Patent US10295551B2, “Development and use of fluorescent probes of unbound bilirubin” (Alan Marc Kleinfeld, priority 2011, dated 2019)
Like-named read-outs stand apart in the source and are kept apart here.

Legend:
[1] = target: T1, rI-FABP (SEQ ID NO: 3) variant L22P5E11, 38R 69T 72A 73K 106A (Rattus norvegicus, UniProt P02693, A70T/A74K/L39R/L73A/R107A); test: fatty acid binding to L22P5E11
T1 construct: 6xHis (C); made in house
From the text: (§1) The major (>75%) FFA species generated from Intralipid® are linoleic, oleic, palmitic and linolenic FFA. Because ADIFAB2 is most specific for stearic acid, for which Intralipid® contains only between 1.5 and 5.5%, FFAu probes with specificity for linoleic, oleic, palmitic and linolenic FFA will provide more accurate and sensitive detection of the rise in plasma FFAu due to Intralipid® hydrolysis. Such FFAu probes have been produced (Table 10) using the methods described in U.S. Pat. No. 7,601,510 and U.S. publication 2010/0298162 and in [Huber A H, Kampf J P, Kwan T, Zhu B and Kleinfeld A M. Fatty acid-specific fluorescent probes and their use in resolving mixtures of different unbound free fatty acids in equilibrium with albumin. Biochemistry 45: 14263-14274, 2006]. Sensitive FFAu probes are necessary for detecting the rise in the patient's FFAu levels, early in the titration of Intralipid®, which is critical for the prevention of unbound bilirubin and FFAu from reaching toxic levels.

[2] = target: T2, rI-FABP (SEQ ID NO: 3) variant L19CP10C7, MGI-14R 18L 27C 71I 73F 117D (Rattus norvegicus, UniProt P02693, A74F/K28C/L73A/M19L/S72I/Y118D/Y15R); test: fatty acid binding to L19CP10C7
T2 construct: 6xHis (C); made in house
T2 sequence (P02693 with tags, fused parts or gaps Y15R/M19L/K28C/S72I/L73A/A74F/Y118D): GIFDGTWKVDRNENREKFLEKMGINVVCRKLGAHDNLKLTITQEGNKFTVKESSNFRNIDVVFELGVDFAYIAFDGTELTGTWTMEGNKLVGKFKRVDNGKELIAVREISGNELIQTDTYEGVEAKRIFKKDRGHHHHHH
From the text: as §1

[3] = target: T3, rI-FABP (SEQ ID NO: 3) variant ADIFAB2, 72A (Rattus norvegicus, UniProt P02693, L73A); test: fatty acid binding to ADIFAB2
T3 construct: 6xHis (C)
T3 sequence (P02693 with tags, fused parts or gaps L73A): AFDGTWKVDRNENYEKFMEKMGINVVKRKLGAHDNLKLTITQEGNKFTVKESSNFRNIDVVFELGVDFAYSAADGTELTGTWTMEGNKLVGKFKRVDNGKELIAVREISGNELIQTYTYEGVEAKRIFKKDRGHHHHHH
From the text: as §1

[4] = target: T4, rI-FABP (SEQ ID NO: 3) variant L119P3E5, 18V 27C 31A 72A 73W (Rattus norvegicus, UniProt P02693, A74W/G32A/K28C/L73A/M19V); test: fatty acid binding to L119P3E5
T4 construct: 6xHis (C); made in house
T4 sequence (P02693 with tags, fused parts or gaps M19V/K28C/G32A/L73A/A74W): as the sequence (P02693 with tags, fused parts or gaps L73A) above, with M18V, K27C, G31A, A73W counted along it
From the text: as §1

[5] = target: rI-FABP (SEQ ID NO: 3) variant L4BP4B9, 73W 74S (Rattus norvegicus, UniProt P02693, A74W/D75S/L73A); test: fatty acid binding to L4BP4B9
rI-FABP (SEQ ID NO: 3) variant L4BP4B9, 73W 74S, sequence (P02693 with tags, fused parts or gaps L73A/A74W/D75S): as the sequence (P02693 with tags, fused parts or gaps L73A) above, with A73W, D74S counted along it
From the text: as §1

[6] = target: T5, rI-FABP (SEQ ID NO: 3) variant L138P1H8 N24C, MGI-18L 21L 23Y 24C 31I 55V 72S 73S 74G 76V 117H 128Y (Rattus norvegicus, UniProt P02693, A74S/D75G/F129Y/F56V/G32I/I24Y/L73S/M19L/M22L/N25C/T77V/Y118H); test: fatty acid binding to L138P1H8N24C
T5 construct: 6xHis (C); made in house
T5 sequence (P02693 with tags, fused parts or gaps with the stated changes): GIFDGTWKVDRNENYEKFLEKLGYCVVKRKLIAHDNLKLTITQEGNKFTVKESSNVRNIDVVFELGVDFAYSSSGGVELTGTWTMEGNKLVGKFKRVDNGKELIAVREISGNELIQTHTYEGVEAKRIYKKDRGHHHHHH
From the text: as §1

[7] = target: T6, rI-FABP (SEQ ID NO: 3) variant L61P8 B12, 8I 14L 18L 23L 27Y 30C 31V 53I 55W 72G 73T 74A 78V 82V 91Y 93M 102V 106W 115W 117L (Rattus norvegicus, UniProt P02693, A74T/D75A/F56W/F94M/G32V/G92Y/I24L/K28Y/L103V/L31C/L73G/L79V/M19L/Q116W/R107W/S54I/V9I/W83V/Y118L/Y15L); test: fatty acid binding to L61P8B12
T6 construct: 6xHis (C); made in house
T6 sequence (P02693 with tags, fused parts or gaps with the stated changes): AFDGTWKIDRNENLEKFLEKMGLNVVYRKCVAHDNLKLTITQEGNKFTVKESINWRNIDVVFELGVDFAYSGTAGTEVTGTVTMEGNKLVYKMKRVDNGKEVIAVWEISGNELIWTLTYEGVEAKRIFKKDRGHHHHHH
From the text: as §1

[8] = target: T7, rI-FABP (SEQ ID NO: 3) variant BL22P1B11, MGI-KR14-14R 18L 25C 27A 38V 60R 73F 106L 115R 117D, SEQ ID NO: 35 (Rattus norvegicus, UniProt P02693, A74F/K101R/K126R/K17R/K21R/K28A/K30R/K38R/K47R/K51R/K89R/K8R/K93R/K95R/L39V/L73A/M19L/Q116R/R107L/V26C/V61R/Y118D/Y15R); assay type: binding
T7 construct: made in house
T7 sequence (P02693 with tags, fused parts or gaps with the stated changes): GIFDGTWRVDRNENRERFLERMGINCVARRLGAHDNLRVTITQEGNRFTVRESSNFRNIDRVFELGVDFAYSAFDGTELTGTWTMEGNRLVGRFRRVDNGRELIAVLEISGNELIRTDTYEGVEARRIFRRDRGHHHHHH

[9] = target: T8, human albumin (Homo sapiens, UniProt P02768); test: Bilirubin binding to a single human albumin site (bilirubin spiked plasma); conditions: prediction in good agreement with measured [Bf] in spiked pooled human plasma
T8 construct: Pooled human plasma (Golden West Biologicals) for which [albumin] was 620 μM was spiked with bilirubin; tissue Golden West Biologicals; host or cells: pooled human plasma
T8 sequence (P02768 25-609): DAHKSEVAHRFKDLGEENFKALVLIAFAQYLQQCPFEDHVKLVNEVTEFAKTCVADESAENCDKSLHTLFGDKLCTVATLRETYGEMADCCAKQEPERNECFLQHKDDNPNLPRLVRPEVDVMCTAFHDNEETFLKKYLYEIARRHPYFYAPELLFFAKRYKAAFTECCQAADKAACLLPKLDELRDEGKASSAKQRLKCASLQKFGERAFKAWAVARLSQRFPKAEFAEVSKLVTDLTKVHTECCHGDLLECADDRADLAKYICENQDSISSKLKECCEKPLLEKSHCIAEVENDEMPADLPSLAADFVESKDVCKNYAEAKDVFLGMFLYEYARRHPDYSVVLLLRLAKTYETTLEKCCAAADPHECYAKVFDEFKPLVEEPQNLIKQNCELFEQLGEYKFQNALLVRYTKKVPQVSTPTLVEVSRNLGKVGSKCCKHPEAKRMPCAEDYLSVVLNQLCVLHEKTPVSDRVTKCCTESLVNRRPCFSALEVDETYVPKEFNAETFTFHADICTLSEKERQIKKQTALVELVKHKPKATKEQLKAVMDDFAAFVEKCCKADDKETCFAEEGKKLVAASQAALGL
Procedure: Pooled human plasma (Golden West Biologicals) for which [albumin] was 620 μM was spiked with bilirubin to generate plasma samples with bilirubin/albumin ratios from of approximately 0 to 0.9. Measurements of [Bf] were carried out using BL22P1B1-Rh in either a Fluorolog3 (JY Horiba) using 10×10 mm cuvettes or in a FFAu Meter (FFA Sciences) modified for measuring unbound bilirubin by replacing emission filters with ones centered at […]. Measurements of [Bf] were also performed on the same samples using the peroxidase method of Jacobsen and Wennberg [Jacobsen J and Wennberg R P. Determination of unbound bilirubin in the serum of newborns. Clin Chem 20: 783, 1974].

[10] = assay type: binding
[11] = Table 6, lysine labeled probes, Primary Fluor Acrylodan
[12] = Table 6, Primary Fluor Acrylodan
[13] = Table 6, Primary Fluor Biotium CF750 SE
[14] = Table 6, Primary Fluor Kodak X-Sight 670 LSS dye
[15] = Table 6, Primary Fluor LiCor IRDye 680 LT
[16] = Table 6, Primary Fluor LiCor IRDye 700DX

T1 sequence (P02693 with tags, fused parts or gaps L39R/A70T/L73A/A74K/R107A): as the sequence (P02693 with tags, fused parts or gaps L73A) above, with L38R, A69T, A73K, R106A counted along it

In the case of CCCCC/C=C\C/C=C\CCCCCCCC(=O)O [Linoleate 18:2 (n-6), Linoleate], the Kd [1] is reported as 6.7 nM, the Kd [2] is reported as 0.8 nM and the Kd [3] is reported as 105 nM. It also gave a Kd [4] of 23 nM, a Kd [5] of 40.8 nM and a Kd [6] of 6.5 nM. For the same molecule, the Kd [7] was 25.7 nM.

Molecule CCCCCCCC/C=C\CCCCCCCC(=O)O [Oleate 18:1 (n-9), Oleate] has a Kd [1] of 3.1 nM, a Kd [2] of 1.2 nM and a Kd [3] of 21.5 nM. It also gave a Kd [4] of 12.7 nM, a Kd [5] of 18.9 nM and a Kd [6] of 7.6 nM. It also gave a Kd [7] of 4.3 nM.

Molecule CC/C=C\C/C=C\C/C=C\CCCCCCCC(=O)O [Linolenate 18:3 (n-3), Linolenate] has a Kd [8] of 3460 nM.

C=CC1=C(C)/C(=C/c2[nH]c(Cc3[nH]c(/C=C4\NC(=O)C(C)=C4C=C)c(C)c3CCC(=O)O)c(CCC(=O)O)c2C)NC1=O [Bilirubin, unconjugated bilirubin IXα] gave a Kd [9] of 20 nM.

B1: BL8P9 G9: SEQ 3 mutein: 18L, 38A, 73F, 106V, 115R, 117D (protein)
chain: AFDGTWKVDRNENYEKFLEKMGINVVKRKLGAHDNLKATITQEGNKFTVKESSNFRNIDVVFELGVDFAYSAFDGTELTGTWTMEGNKLVGKFKRVDNGKELIAVVEISGNELIRTDTYEGVEAKRIFKKDRGHHHHHH
modifications: acrylodan labeled; rat intestinal fatty acid binding protein with substitution of Xaa at one or more of 14, 18, 23, 25, 27, 31, 36, 38, 55, 60, 72, 73, 74, 78, 102, 104, 106, 115 and 117; rat intestinal fatty acid binding protein in which one amino acid residue may be substituted with cysteine or lysine; optional 6His tag at N terminus; Xaa=any amino acid
In the case of B1, the Kd [10, 11] is reported as 1050 nM and the Is [10, 12] is reported as 0.29.

B2: L1P14 D6: SEQ 3 mutein: 14M 72V 117W (protein)
chain: AFDGTWKVDRNENMEKFMEKMGINVVKRKLGAHDNLKLTITQEGNKFTVKESSNFRNIDVVFELGVDFAYSVADGTELTGTWTMEGNKLVGKFKRVDNGKELIAVREISGNELIQTWTYEGVEAKRIFKKDRGHHHHHH
modifications: acrylodan label; rat intestinal fatty acid binding protein with substitution of Xaa at one or more of 14, 18, 23, 25, 27, 31, 36, 38, 55, 60, 72, 73, 74, 78, 102, 104, 106, 115 and 117; rat intestinal fatty acid binding protein in which one amino acid residue may be substituted with cysteine or lysine; optional 6His tag at N terminus; Xaa=any amino acid
B2 gave a Kd [10, 11] of 309 nM and an Is [10, 12] of 0.04.

B3: BL22P1B11 - 25K: SEQ 3 mutein: MGI - KR14 - 14R 18L 25K 27A 38V 60R 73F 106L 115R 117D (protein)
chain: AFDGTWKVDRNENREKFLEKMGINKVARKLGAHDNLKVTITQEGNKFTVKESSNFRNIDRVFELGVDFAYSAFDGTELTGTWTMEGNKLVGKFKRVDNGKELIAVLEISGNELIRTDTYEGVEAKRIFKKDRGHHHHHH
modifications: BL22P1B11; Tyr->Arg; Met-> Leu; Val-> Cys; Lys-> Ala; Leu-> Val; Val-> Arg; Leu-> Ala; Ala-> Phe; Arg-> Leu; Gln-> Arg; Tyr -> Asp; 6His tag at N terminus
For B3, the Is [10, 13] was 0.19, the Kd [10, 13] was 9500 nM and the Is [10, 14] was 0.61. For the same molecule, the Kd [10, 14] was 700 nM, the Is [10, 15] was 0.67 and the Kd [10, 15] was 239 nM. The Is [10, 16] was 0.14 and the Kd [10, 16] was 80 nM.

B4: L1P1 C 12: SEQ 3 mutein: 38I 72W 117W (protein)
chain: AFDGTWKVDRNENYEKFMEKMGINVVKRKLGAHDNLKITITQEGNKFTVKESSNFRNIDVVFELGVDFAYSWADGTELTGTWTMEGNKLVGKFKRVDNGKELIAVREISGNELIQTWTYEGVEAKRIFKKDRGHHHHHH
modifications: acrylodan label; rat intestinal fatty acid binding protein with substitution of Xaa at one or more of 14, 18, 23, 25, 27, 31, 36, 38, 55, 60, 72, 73, 74, 78, 102, 104, 106, 115 and 117; rat intestinal fatty acid binding protein in which one amino acid residue may be substituted with cysteine or lysine; optional 6His tag at N terminus; Xaa=any amino acid
In the case of B4, the Kd [10, 11] is reported as 35.8 nM and the Is [10, 12] is reported as 0.11.

B5: L1P1 B4: SEQ 3 mutein: 14I 72W 117W (protein)
chain: AFDGTWKVDRNENIEKFMEKMGINVVKRKLGAHDNLKLTITQEGNKFTVKESSNFRNIDVVFELGVDFAYSWADGTELTGTWTMEGNKLVGKFKRVDNGKELIAVREISGNELIQTWTYEGVEAKRIFKKDRGHHHHHH
modifications: acrylodan label; rat intestinal fatty acid binding protein with substitution of Xaa at one or more of 14, 18, 23, 25, 27, 31, 36, 38, 55, 60, 72, 73, 74, 78, 102, 104, 106, 115 and 117; rat intestinal fatty acid binding protein in which one amino acid residue may be substituted with cysteine or lysine; optional 6His tag at N terminus; Xaa=any amino acid
B5 showed a Kd [10, 11] of 711 nM and an Is [10, 12] of 0.
